From PMC12312386, “Multiple transactivation domains of EZH2 bind to the TAZ2 domain of p300 and stimulate the acetyltransferase function of p300” (Biochemical Journal, 2025)
No end group written: not given here.

How the values were obtained:
[1] = target: T1, p300TAZ2 (TAZ2 domain of p300) (Homo sapiens, UniProt Q09472, A1723W); experiment: Microscale thermophoresis (MST) binding of p300TAZ2-His to EZH2 TAD peptides; conditions: direct binding, p300TAZ2-6×His labeled RED-tris-NTA, 10 nM; 25 mM Tris pH 7.5, 150 mM NaCl, 2.5 mM DTT; 1:1 stoichiometry; average ± SD of three (EZH2TAD2, EZH2TAD3) or four (EZH2TAD1) independent measurements
T1 construct: Human p300TAZ2 [aa 1722–1812, pGEX-4T-1 vector with an additional tobacco etch virus (TEV) cleavage site]; GST (pGEX-4T-1, TEV site) (N, cleaved yes); made in house; host or cells: Escherichia coli Rosetta-2 (DE3) pLysS
T1 sequence (Q09472 1722-1812 A1723W): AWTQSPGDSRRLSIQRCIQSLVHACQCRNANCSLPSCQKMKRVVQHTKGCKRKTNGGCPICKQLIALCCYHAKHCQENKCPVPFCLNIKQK
Method: After induction with isopropyl b-D-1-thiogalactopyranoside (IPTG), harvesting, and lysis in buffer [50 mM Tris pH 7.0, 1 M NaCl, 5 mM dithiothreitol (DTT), 1 mM phenylmethanesulfonylfluoride (PMSF) and DNase] by sonication, the proteins were purified on glutathione agarose beads (Pierce) and eluted with buffer containing reduced L-glutathione (Fisher). The GST tag was either cleaved with TEV protease overnight at 22°C or kept intact during subsequent purification steps. Both GST- and His-tagged proteins, as well as untagged p300TAZ2, were further purified by cation exchange (HiTrap SP HP, Cytiva) or heparin affinity chromatography (HiTrap Heparin HP, Cytiva).
MST experiments were carried out on a Monolith NT.115 instrument (NanoTemper). All experiments were performed using SEC-purified p300TAZ2-6×His protein in 25 mM Tris pH 7.5 buffer, 150 mM NaCl, and 2.5 mM DTT. p300TAZ2-6×His was labeled using a His-Tag Labeling Kit RED-tris-NTA (2nd Generation, NanoTemper) and kept constant at 10 nM. Dissociation constants were determined using a direct binding assay in which peptide was varied in concentration by serial dilution of discrete samples. The measurements were performed at 50% LED and medium MST power with 3-s pre-laser time, 20-s laser on-time, and 1-s off-time.

GST-p300TAZ2 = experiment: Mass photometry (MP) of GST-p300TAZ2 with EZH2TAD constructs; assay type: binding, human
Method: [37]. […] After induction with isopropyl b-D-1-thiogalactopyranoside (IPTG), harvesting, and lysis in buffer [50 mM Tris pH 7.0, 1 M NaCl, 5 mM dithiothreitol (DTT), 1 mM phenylmethanesulfonylfluoride (PMSF) and DNase] by sonication, the proteins were purified on glutathione agarose beads (Pierce) and eluted with buffer containing reduced L-glutathione (Fisher). The GST tag was either cleaved with TEV protease overnight at 22°C or kept intact during subsequent purification steps. […] The EZH2TAD1 ([…]) construct was generated by deletion using Q5 Hot Start High-Fidelity kit (NEB) and confirmed by DNA sequencing. Both constructs were expressed in E. coli Rosetta-2 (DE3) pLysS cells grown in LB media and induced at an OD600 of 0.6-0.8 with 1 mM IPTG for 16 h at 16°C. Cells were harvested by centrifugation, suspended in buffer (50 mM Tris pH 7.5, 500 mM NaCl, 1% CHAPS, 2 mM DTT, 1 mM PMSF, Roche cOmplete Protease Inhibitor Cocktail, and DNase), and lysed by sonication. […] When necessary, EZH2TAD constructs were further purified using a Superdex 200 Increase 10/300 GL column (Cytiva) with monitoring at 205 and 280 nm. […] To overcome the minimum size limit, a GST-fusion construct was used for one of the components in each sample. […] Ten microliter of each sample was loaded into the sample wells of the silicon cassettes assembled onto MassGlass UC coverslips (Refeyn, Ltd.). […]

[2] = tested on: FLAG-HA-tagged p300 catalytic core (aa 1035–1830 of p300); experiment: Histone acetyltransferase (HAT) assay, Western blot, recombinant nucleosome substrate; assay type: biochemical; conditions: 1 μg p300 core, 2.5, 5 or 10 μg GST-tagged TADs, 1 μg nucleosome, 100 mM acetyl-CoA, 50 mM Tris-HCl pH 8.0, 30°C, 15 min
Method: Histone acetyltransferase assay
For HAT assays, FLAG-HA-tagged p300 core (aa 1035–1830 of p300) in a pCDH vector was expressed in 293 T cells for two days. Cells were lysed in lysis buffer (50 mM Tris-HCl pH 7.5, 300 mM NaCl, 1.5 mM MgCl2, 1 mM EDTA, 1% Triton100, 10% glycerol, 1 mM PMSF, and protease inhibitors) and sonicated. Cell lysates were incubated with anti-Flag M2 beads (Sigma) at 4° for 4 h. The beads were then washed three times with buffer (50 mM Tris-HCl pH 7.5, 500 mM NaCl, 1.5 mM MgCl2, 0.2 mM EDTA, 0.1% NP40, 10% glycerol, and 1 mM PMSF), and the protein was eluted with elution buffer (50 mM Tris-HCl pH 7.5, 300 mM NaCl, 1 mM DTT, 10% glycerol, and 0.4 mg/ml Flag peptide). […]
Purified FLAG-HA-tagged p300 catalytic core fragment (1 μg) was incubated with increasing amounts of GST-tagged EZH2TADs and GST-tagged EZH1TADs (2.5, 5, or 10 μg) and the nucleosome (1 μg) in HAT reaction buffer (50 mM Tris-HCl pH 8.0, 100 mM NaCl, 10% glycerol, 1 mM DTT, […], and 1× cOmplete EDTA-free Protease Inhibitor Cocktail) at 30°C for 15 min. Reactions were stopped by boiling at 95°C for 5 min in 2×SDS loading buffer, and samples were analyzed by SDS-PAGE and Western blot. […]

p300TAZ2 = experiment: Mass photometry (MP) of GST-EZH2TAD1 with p300TAZ2; assay type: binding, human
Method: [37]. Briefly, both ^15N-labeled and unlabeled constructs were expressed in Escherichia coli Rosetta-2 (DE3) pLysS cells grown in either M9 minimal media or TB, both supplemented with 50-150 μM ZnCl2. After induction with isopropyl b-D-1-thiogalactopyranoside (IPTG), harvesting, and lysis in buffer [50 mM Tris pH 7.0, 1 M NaCl, 5 mM dithiothreitol (DTT), 1 mM phenylmethanesulfonylfluoride (PMSF) and DNase] by sonication, the proteins were purified on glutathione agarose beads (Pierce) and eluted with buffer containing reduced L-glutathione (Fisher). The GST tag was either cleaved with TEV protease overnight at 22°C or kept intact during subsequent purification steps. […] Human EZH2[…]3 ([…]) construct with a C-terminal 6×His tag was cloned into a pGEX-6P-1 vector (GenScript). The EZH2TAD1 ([…]) construct was generated by deletion using Q5 Hot Start High-Fidelity kit (NEB) and confirmed by DNA sequencing. Both constructs were expressed in E. coli Rosetta-2 (DE3) pLysS cells grown in LB media and induced at an OD600 of 0.6-0.8 with 1 mM IPTG for 16 h at 16°C. Cells were harvested by centrifugation, suspended in buffer (50 mM Tris pH 7.5, 500 mM NaCl, 1% CHAPS, 2 mM DTT, 1 mM PMSF, Roche cOmplete Protease Inhibitor Cocktail, and DNase), and lysed by sonication. […] When necessary, EZH2TAD constructs were further purified using a Superdex 200 Increase 10/300 GL column (Cytiva) with monitoring at 205 and 280 nm. Mass Photometry […] To overcome the minimum size limit, a GST-fusion construct was used for one of the components in each sample. […] Ten microliter of each sample was loaded into the sample wells of the silicon cassettes assembled onto MassGlass UC coverslips (Refeyn, Ltd.). Measurements were performed at room temperature in buffer (50 mM Tris pH 7.5, 150 mM NaCl, 5 mM DTT). β-amylase was used as calibration standard (56 kDa, 112 kDa, and 224 kDa). After the focus was set and locked, movies were captured for 60 s (2800 frames) using AcquireMP software (Refeyn Ltd). Data were processed using DiscoverMP (Refeyn Ltd).

Question: Which Kd [1] does the source give for SDKIFEAISSMF [EZH2TAD3] here?
Answer: Its Kd is 0.52 ± 0.06 µM.

Question: Which results are given for “EZH2TAD1-TAD2-TAD3: recombinant human EZH2 aa 142–231 construct with a C-terminal 6×His tag, used in mass photometry”?
Answer: MP peak of complex with GST-p300TAZ2 (GST-p300TAZ2; 20 nM GST-p300TAZ2 + 1 μM EZH2TAD1-TAD2-TAD3, room temperature, 50 mM Tris pH 7.5, 150 mM NaCl, 5 mM DTT): ~ 224 kDa; stoichiometry of the complex with GST-p300TAZ2 (GST-p300TAZ2; from MP peak, 20 nM GST-p300TAZ2, EZH2TAD1-TAD2 5 μM or EZH2TAD1-TAD2-TAD3 1 μM): six molecules of GST-p300TAZ2 and one molecule of EZH2TAD1-TAD2-TAD3

Question: With “EZH2 WT: GST-tagged EZH2TAD1-TAD2-TAD3 (aa 119–267)” as the substance, how does the “H3K18 acetylation by p300 core” value ([2]; H3K18ac Western blot) read?
Answer: Its value is “dose-dependent increase in H3K18 and H3K27 acetylation”.

Question: And the “H3K27 acetylation by p300 core” value ([2]; H3K27ac Western blot)?
Answer: Its value is “dose-dependent increase in H3K18 and H3K27 acetylation”.

Question: With “GST-EZH2TAD1: recombinant GST-tagged EZH2TAD1 (aa 142–160) construct (DGTFIEELIKNYDGKVHGD-His6; also: GST tag, end not given here)” as the substance, how does the “shift of the MP peak upon addition of p300TAZ2” value (p300TAZ2; 20 nM GST-EZH2TAD1, 0.1 μM p300TAZ2) read?
Answer: Its value is ~ 14 kDa.

Question: And the “oligomeric state in the apo-state” value (p300TAZ2; 20 nM GST-EZH2TAD1 alone)?
Answer: The value was “formed a dimer in the apo-state”.

Question: What about the “MP peak, apo GST-EZH2TAD1” value (p300TAZ2; 20 nM GST-EZH2TAD1 alone, room temperature, 50 mM Tris pH 7.5, 150 mM NaCl, 5 mM DTT) of the same substance?
Answer: Its value is ~ 70 kDa.

Question: And the “oligomeric state / stoichiometry of GST-EZH2TAD1 complexes” value (p300TAZ2; 20 nM GST-EZH2TAD1 with 0.1 μM p300TAZ2)?
Answer: Its value is “dimeric GST-EZH2TAD1 bound by one molecule of p300TAZ2 and by two molecules of p300TAZ2”.

Question: With DGTFIEELIKNYD [EZH2TAD1] as the substance, how does the Kd [1] read?
Answer: Its Kd is 0.53 ± 0.08 µM.

Question: Which Kd [1] does the source give for NDEIFVELVNALGQYNDDD [EZH2TAD2] here?
Answer: Its Kd is 0.31 µM.
